Structures are written as SMILES.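 Tested at 5 concentrations; 48 h exposure; 96-well plates; endpoints linearly interpolated, else capped at highest concentration. GI50 = concentration required for 50% inhibition of growth.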 Activity calls are given as the source filed them. Rule as the data show it: active = GI50 up to about 1.1 µM and inactive = higher. Some results are limits rather than exact numbers.

Some test systems named below: NCI/ADR-RES; KM12; RXF 393; SK-MEL-5; MDA-MB-231; Hs-578T; K562; SK-MEL-28; COLO 205; SR; NCI-H460; OVCAR-5; OVCAR-8; SF-539; T47D; HT-29; UO-31; A498; NCI-H23; MDA-N.
Common to all, as to test: growth of human tumour cells (NCI), 48 h

`C/C(=C\COP(=O)(O)OP(=O)(O)O)CC/C=C(\C)CNc1ccccc1`: the GI50 was > 50 µM (inactive) with NCI/ADR-RES; > 50 µM (inactive) in the experiment with KM12; > 50 µM (inactive) in the experiment with RXF 393; 26.9 µM (inactive) in the experiment with SK-MEL-5; > 50 µM (inactive) in the experiment on MDA-MB-231; 26.4 µM (inactive) in the experiment with Hs-578T. Moreover, the GI50 in the experiment on K562 is > 50 µM (inactive); with SK-MEL-28, > 50 µM (inactive); in the experiment with COLO 205 it was > 50 µM (inactive); in the experiment with SR, 0.0893 µM (active); in the experiment with NCI-H460, > 50 µM (inactive); in the experiment with OVCAR-5, > 50 µM (inactive). Moreover, the GI50 is > 50 µM (inactive) in the experiment on OVCAR-8; > 50 µM (inactive) in the experiment with SF-539; 27.4 µM (inactive) in the experiment on T47D; > 50 µM (inactive) with HT-29; > 50 µM (inactive) with UO-31.
For `COc1ccc(NCn2nc(CCCCCCCCc3nn(CNc4ccc(OC)cc4)c(=S)o3)oc2=S)cc1`, the GI50 in the experiment with NCI/ADR-RES, in the experiment with A498, in the experiment with KM12, in the experiment with NCI-H23, in the experiment on RXF 393 and in the experiment on SK-MEL-5 was > 100 µM (inactive) in each case. Also, the GI50 with MDA-MB-231, in the experiment on MDA-N, with K562, in the experiment on SK-MEL-28, in the experiment with COLO 205 and in the experiment on NCI-H460 was > 100 µM (inactive) throughout. Further, the GI50 with OVCAR-5, with HT-29 and in the experiment with UO-31 was > 100 µM (inactive) throughout.
`CO/C(=N\N=C\c1ccc(C(F)(F)F)cc1)c1ccncc1`: the GI50 in the experiment with NCI/ADR-RES, with KM12, with NCI-H23, with RXF 393, with MDA-MB-231 and in the experiment with MDA-N was > 10 µM (inactive) throughout. The GI50 in the experiment on K562, with COLO 205, with SR, in the experiment with NCI-H460, in the experiment on OVCAR-5 and in the experiment with OVCAR-8 was > 10 µM (inactive) each time. Besides, the GI50 in the experiment with T47D, in the experiment with HT-29 and in the experiment on UO-31 was > 10 µM (inactive) throughout.
Consider `COC(=O)[C@]12CCC(C)(C)C[C@H]1[C@H]1C(=O)C=C3[C@@]4(C)C=C(C#N)C(=O)C(C)(C)[C@@H]4CC[C@@]3(C)[C@]1(C)CC2` [BARDOXOLONE METHYL], for which the GI50 is 0.0188 µM (active) with NCI/ADR-RES; 0.046 µM (active) in the experiment with A498; 0.0163 µM (active) in the experiment with KM12; 0.0156 µM (active) with NCI-H23; 0.0247 µM (active) in the experiment with RXF 393; 0.0286 µM (active) in the experiment on SK-MEL-5. Moreover, the GI50 in the experiment on MDA-MB-231 is 0.0301 µM (active); with Hs-578T it was 0.0321 µM (active); in the experiment with K562 it was 0.0205 µM (active); with SK-MEL-28, 0.0759 µM (active); with COLO 205, 0.0199 µM (active); with SR, 0.0245 µM (active). Besides, the GI50 was 0.0205 µM (active) in the experiment on NCI-H460; 0.04 µM (active) in the experiment on OVCAR-5; 0.0199 µM (active) in the experiment on OVCAR-8; 0.0419 µM (active) in the experiment on SF-539; 0.0288 µM (active) in the experiment on T47D; 0.0552 µM (active) in the experiment on HT-29. Besides, in the experiment on UO-31, the GI50 was 0.0818 µM (active).
For `CC(C)(Cc1ccccc1)Cc1cc(O)ccc1O`, the GI50 in the experiment on NCI/ADR-RES was 16.4 µM (inactive); with A498, 22 µM (inactive); in the experiment with KM12, 15 µM (inactive); in the experiment with NCI-H23 it was 14.6 µM (inactive); in the experiment with RXF 393, 13.6 µM (inactive); with MDA-MB-231, 20 µM (inactive). In addition, the GI50 was 16.4 µM (inactive) in the experiment with MDA-N; 12.4 µM (inactive) in the experiment on K562; 21.8 µM (inactive) in the experiment on SK-MEL-28; 19.2 µM (inactive) in the experiment with COLO 205; 4.63 µM (inactive) in the experiment with SR; 16.6 µM (inactive) in the experiment with NCI-H460. Moreover, the GI50 is 30.8 µM (inactive) with OVCAR-5; 17.2 µM (inactive) in the experiment on OVCAR-8; 13 µM (inactive) in the experiment on SF-539; 5.9 µM (inactive) with T47D; 20.6 µM (inactive) in the experiment on HT-29; 13.4 µM (inactive) with UO-31.
`CN(C)/C=N/c1c2ccccc2nc2ccccc12`: the GI50 in the experiment on NCI/ADR-RES is 10.6 µM (inactive); in the experiment on A498 it was 8 µM (inactive); in the experiment on NCI-H23 it was 3.31 µM (inactive); in the experiment with RXF 393, 4.34 µM (inactive); in the experiment on SK-MEL-5, 2.98 µM (inactive); in the experiment with MDA-MB-231 it was 5.77 µM (inactive). Besides, the GI50 with Hs-578T is 2.01 µM (inactive); in the experiment with K562, 4.47 µM (inactive); in the experiment on SK-MEL-28, 1.99 µM (inactive); with COLO 205, 2.48 µM (inactive); with OVCAR-5, 6.52 µM (inactive); in the experiment on OVCAR-8, 3.92 µM (inactive). For the same molecule, the GI50 in the experiment with SF-539 is 2.78 µM (inactive); in the experiment with T47D, 2.65 µM (inactive); in the experiment on HT-29 it was 3.06 µM (inactive); in the experiment with UO-31, 5.86 µM (inactive).
Regarding `CCCCCC[C@H]1CC(=O)C2CCCC[C@@]23CC[C@H](CCl)N13.CCCCCC[C@H]1CC(=O)C2CCCC[C@@]23C[C@H](Cl)CN13` (some centres not stated), the GI50 was > 100 µM (inactive) in the experiment on A498; 49.8 µM (inactive) in the experiment on KM12; 47.5 µM (inactive) in the experiment on NCI-H23; 17.2 µM (inactive) in the experiment with SK-MEL-5; 84.5 µM (inactive) in the experiment on MDA-MB-231; 8.53 µM (inactive) in the experiment on Hs-578T. Besides, the GI50 was 28.6 µM (inactive) with K562; 38.1 µM (inactive) in the experiment with SK-MEL-28; 10 µM (inactive) in the experiment on COLO 205; 98.2 µM (inactive) in the experiment on NCI-H460; > 100 µM (inactive) in the experiment on OVCAR-5; 25.4 µM (inactive) with OVCAR-8. The GI50 was 69.5 µM (inactive) in the experiment with SF-539, 61.9 µM (inactive) with HT-29 and 24.3 µM (inactive) in the experiment with UO-31.
As to `c1ccc2c(c1)SCCCS2`, the GI50 in the experiment on NCI/ADR-RES, in the experiment on KM12, in the experiment on NCI-H23, in the experiment on SK-MEL-5, in the experiment on MDA-MB-231 and in the experiment with MDA-N was > 100 µM (inactive) each time. Besides, the GI50 in the experiment with K562, in the experiment with SK-MEL-28, in the experiment with COLO 205, in the experiment with SR, with NCI-H460 and in the experiment on OVCAR-5 was > 100 µM (inactive) in each case. In addition, the GI50 in the experiment on OVCAR-8, with SF-539, with T47D, in the experiment with HT-29 and in the experiment with UO-31 was > 100 µM (inactive) throughout.
Regarding `CCn1c(-c2cc3ccccc3cc2OC(C)=O)n[nH]c1=S`, the GI50 is 21.2 µM (inactive) with NCI/ADR-RES; 25.8 µM (inactive) in the experiment on A498; 27.6 µM (inactive) in the experiment with KM12; 30.5 µM (inactive) in the experiment with NCI-H23; 11.1 µM (inactive) in the experiment on RXF 393; 14.9 µM (inactive) with SK-MEL-5. The GI50 is 26.1 µM (inactive) in the experiment on MDA-MB-231; 15.2 µM (inactive) with Hs-578T; 14.5 µM (inactive) with K562; 32.4 µM (inactive) with SK-MEL-28; 0.624 µM (active) in the experiment with SR; 24.7 µM (inactive) in the experiment on NCI-H460. Also, the GI50 was 44.6 µM (inactive) in the experiment with OVCAR-5; 38.4 µM (inactive) with OVCAR-8; 35.6 µM (inactive) with SF-539; 18.6 µM (inactive) with T47D; 30.4 µM (inactive) with HT-29; 67.8 µM (inactive) in the experiment with UO-31.
For `CCOc1ccc2c(c1)c(CC(=O)O)cn2C`, the GI50 in the experiment with NCI/ADR-RES, in the experiment with KM12, in the experiment with NCI-H23, in the experiment on RXF 393, in the experiment with MDA-MB-231 and with Hs-578T was > 100 µM (inactive) each time. Moreover, the GI50 in the experiment with K562, in the experiment on SK-MEL-28, in the experiment with COLO 205, in the experiment with SR, in the experiment with NCI-H460 and with OVCAR-8 was > 100 µM (inactive) in each case. In addition, the GI50 in the experiment with SF-539, with T47D, with HT-29 and in the experiment with UO-31 was > 100 µM (inactive) each time.
For `O=C(CCN1CCCCC1CCO)Nc1ccc2c(c1)C(=O)c1ccc(NC(=O)CCN3CCCCC3CCO)cc1C2=O` (configuration not stated), the GI50 was 1.86 µM (inactive) in the experiment on A498; 2.54 µM (inactive) with KM12; 15 µM (inactive) with NCI-H23; 2.12 µM (inactive) in the experiment on RXF 393; 9.4 µM (inactive) with SK-MEL-5; 3.85 µM (inactive) in the experiment on K562. The GI50 in the experiment on SK-MEL-28 is 10.1 µM (inactive); with COLO 205, 2.11 µM (inactive); in the experiment with SR it was 4.14 µM (inactive); in the experiment with NCI-H460, 3.6 µM (inactive); in the experiment with OVCAR-5 it was 17.7 µM (inactive); in the experiment on OVCAR-8 it was 3.73 µM (inactive). Moreover, the figures for the GI50 in the experiment with SF-539, in the experiment with HT-29 and in the experiment on UO-31 were 2.1 µM (inactive), 5.52 µM (inactive) and > 100 µM (inactive), respectively.
Take `COC(=O)CCC1=CCC2(SC)C(=O)Nc3cccc1c32` (configuration not stated): the GI50 in the experiment with NCI/ADR-RES, in the experiment with KM12, in the experiment with NCI-H23, in the experiment with SK-MEL-5, in the experiment on MDA-MB-231 and in the experiment with Hs-578T was > 100 µM (inactive) each time. For the same molecule, the GI50 in the experiment with SK-MEL-28, in the experiment on COLO 205, in the experiment on SR, in the experiment with NCI-H460, in the experiment on OVCAR-5 and in the experiment on OVCAR-8 was > 100 µM (inactive) each time. The GI50 was > 100 µM (inactive) with SF-539, 4.7 µM (inactive) with T47D, > 100 µM (inactive) in the experiment with HT-29 and > 100 µM (inactive) in the experiment on UO-31.

Values taken from ChEMBL document CHEMBL1201862, “PubChem BioAssay data set” (2004).
